From US7304058B2, “Carbamic acid esters of benzothiazoles” (Hoffmann-La Roche Inc., priority 2003, dated 2007)

How the values were obtained:
[1] = biological target: T1, human adenosine A2A receptor (Homo sapiens, UniProt P29274); assay: [3H]-SCH-58261 binding assay, human adenosine A2A receptor; settings: [3H]-SCH-58261 1 nM; membranes of CHO cells expressing the recombinant receptor; Ki by Cheng-Prussoff; read-out: hA2 (pKi) (converted)
T1 construct: expressed in transfected cells; host or cells: CHO cells, Semliki Forest virus expression system; membrane preparation
Experimental: Human Adenosine A2A Receptor
The human adenosine A2A receptor was recombinantly expressed in Chinese hamster ovary (CHO) cells using the semliki forest virus expression system. Cells were harvested, washed twice by centrifugation, homogenized and again washed by centrifugation. The final washed membrane pellet was suspended in a Tris (50 mM) buffer containing 120 mM NaCl, 5 mM KCl, 2 mM CaCl2 and 10 mM MgCl2 (pH 7.4) (buffer A). The [^3H]-SCH-58261 (Dionisotti et al., 1997, Br J Pharmacol 121, 353; 1 nM) binding assay was carried out in 96-well plates in the presence of 2.5 μg of membrane protein, 0.5 mg of Ysi-poly-1-lysine SPA beads and 0.1 U adenosine deaminase in a final volume of 200 μl of buffer A. Non-specific binding was defined using xanthine amine congener (XAC; 2 μM). Compounds were tested at 10 concentrations from 10 μM-0.3 nM. All assays were conducted in duplicate and repeated at least two times. Assay plates were incubated for 1 hour at room temperature before centrifugation and then bound ligand determined using a Packard Topcount scintillation counter. IC50 values were calculated using a non-linear curve fitting program and Ki values calculated using the Cheng-Prussoff equation.

T1 sequence (P29274 whole entry): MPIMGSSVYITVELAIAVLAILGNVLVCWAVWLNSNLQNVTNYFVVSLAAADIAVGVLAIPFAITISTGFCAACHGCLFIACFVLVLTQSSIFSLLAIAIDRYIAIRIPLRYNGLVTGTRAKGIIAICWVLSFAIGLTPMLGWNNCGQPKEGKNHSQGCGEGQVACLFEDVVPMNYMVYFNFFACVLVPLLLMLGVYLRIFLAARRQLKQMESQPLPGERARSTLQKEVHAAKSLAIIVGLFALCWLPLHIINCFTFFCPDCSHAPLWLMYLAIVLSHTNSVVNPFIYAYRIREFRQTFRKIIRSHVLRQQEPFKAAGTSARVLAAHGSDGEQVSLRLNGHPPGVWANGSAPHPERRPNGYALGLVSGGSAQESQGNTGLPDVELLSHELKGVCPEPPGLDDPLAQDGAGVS

| SMILES | Ki [1] | melting point |
| --- | --- | --- |
| COc1ccc(N2CCOCC2)c2sc(NC(=O)OC3CCC(O)C3)nc12 (mixture of isomers) [Example 11, (cis/trans)-(4-Methoxy-7-morpholin-4-yl-benzothiazol-2-yl)-carbamic acid 3-hydroxy-cyclopentyl ester] | 15.8 nM | 188 to 189 °C |
| COc1ccc(N2CCOCC2)c2sc(NC(=O)OC3CC4CC3CC4O)nc12 (racemic) [Example 9, (rac)-(exo,exo)-(4-Methoxy-7-morpholin-4-yl-benzothiazol-2-yl)-carbamic acid 5-hydroxy-bicyclo[2.2.1]hept-2-yl ester] | 3.98 nM | 193 to 194 °C |
| COc1ccc(C2CCOCC2)c2sc(NC(=O)O[C@H]3CC[C@H](O)CC3)nc12 [Example 1, (trans)-[4-Methoxy-7-(tetrahydro-pyran-4-yl)-benzothiazol-2-yl]-carbamic acid 4-hydroxy-cyclohexyl ester] | 2 nM | 282 to 284 °C |
| CCOC(=O)Nc1nc2c(OC)ccc(C3CCOCC3)c2s1 [Example 2, [4-Methoxy-7-(tetrahydro-pyran-4-yl)-benzothiazol-2-yl]-carbamic acid ethyl ester] | 5.01 nM | 170 to 174 °C |
| COCCOC(=O)Nc1nc2c(OC)ccc(N3CCOCC3)c2s1 [Example 3, (4-Methoxy-7-morpholin-4-yl-benzothiazol-2-yl)-carbamic acid 2-methoxy-ethyl ester] | 12.6 nM | 149 to 152 °C |
| COc1ccc(N2CCOCC2)c2sc(NC(=O)OCC(C)C)nc12 [Example 4, (4-Methoxy-7-morpholin-4-yl-benzothiazol-2-yl)-carbamic acid isobutyl ester] | 25.1 nM | 164 to 168 °C |
| COc1ccc(N2CCOCC2)c2sc(NC(=O)OC3CCCCC3)nc12 [Example 5, (4-Methoxy-7-morpholin-4-yl-benzothiazol-2-yl)-carbamic acid cyclohexyl ester] | 7.94 nM | 177 to 179 °C |
| COc1ccc(N2CCOCC2)c2sc(NC(=O)O[C@H]3CC[C@H](O)CC3)nc12 [Example 6, (tran)s-(4-Methoxy-7-morpholin-4-yl-benzothiazol-2-yl)-carbamic acid 4-hydroxy-cyclohexyl ester] | 6.31 nM | 176 to 179 °C |
| COc1ccc(N2CCOCC2)c2sc(NC(=O)O[C@H]3CC[C@@H](O)CC3)nc12 [Example 7, (cis)-(4-Methoxy-7-morpholin-4-yl-benzothiazol-2-yl)-carbamic acid 4-hydroxy-cydohexyl ester] | 10 nM | 204 to 206 °C |
| COc1ccc(N2CCOCC2)c2sc(NC(=O)OC3CCOCC3)nc12 [Example 8, (4-Methoxy-7-morpholin-4-yl-benzothiazol-2-yl)-carbamic acid tetrahydro-pyran-4-yl ester] | 7.94 nM | 187 to 188 °C |
| COc1ccc(N2CCOCC2)c2sc(NC(=O)O[C@@H]3CCOC3)nc12 [Example 10, (R)-(4-Methoxy-7-morpholin-4-yl-benzothiazol-2-yl)-carbamic acid tetrahydro-furan-3-yl ester] | 25.1 nM | 198 to 200 °C |
| COc1ccc(C2CCOCC2)c2sc(NC(=O)OCC3CCCO3)nc12 (centres unmarked) [Example 12, [4-Methoxy-7-(tetrahydro-pyran-4-yl)-benzothiazol-2-yl]-carbamic acid tetrahydro-furan-2-ylmethyl ester] | 12.6 nM | 175 to 180 °C |
| COc1ccc(C2CCOCC2)c2sc(NC(=O)O[C@H]3CCOC3)nc12 [Example 13, [4-Methoxy-7-(tetrahydro-pyran-4-yl)-benzothiazol-2-yl]-carbamic acid (S)-(tetrahydro-furan-3-yl) ester] | 3.98 nM | 195 to 200 °C |
